# Measured values published in patent US11117900B2 (Vertex Pharmaceuticals Incorporated, priority 2012, dated 2021).
# Test system: HCT116 colorectal cancer cells
# Experiment: Cisplatin sensitization assay (96 h MTS cell viability);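 also: compound concentration needed to lower the IC50 of Cisplatin alone by a set fold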
# Assay type: cell-based
# Conditions: Cisplatin sensitization value
# How it was run: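 The MTS viability read, after 1 h with reagent, followed 96 h of co-treatment at 37° C. in 5% CO2. Both compound and cisplatin were titrated 2-fold from a 10 μM top final concentration in a complete concentration matrix on HCT116 cells. Scores +++/++/+ reflect cisplatin sensitization value ranges.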
row,Structure (SMILES),Cisplatin Sensitization Assay
1,"Nc1nn2cc(F)cnc2c1C(=O)Nc1cnccc1N1CCC(C(=O)N2CC(F)C2)CC1 [I-G-82, 2-amino-6-fluoro-N-(4-(4-(3-fluoroazetidine-1-carbonyl)piperidin-1-yl)pyridin-3-yl)pyrazolo[1,5-a]pyrimidine-3-carboxamide]",+++ (Compounds with a Cisplatin sensitization value of <0.02 μM are marked with “+++.”)
2,"Nc1nn2cc(F)cnc2c1C(=O)Nc1cnccc1N1CCC(C(=O)N2CCCC2)CC1 [I-G-83, 2-amino-6-fluoro-N-(4-(4-(pyrrolidine-1-carbonyl)piperidin-1-yl)pyridin-3-yl)pyrazolo[1,5-a]pyrimidine-3-carboxamide]",+++ (Compounds with a Cisplatin sensitization value of <0.02 μM are marked with “+++.”)
3,"Nc1nn2cc(F)cnc2c1C(=O)Nc1cnccc1N1CCC(C(=O)N2CCC3(COC3)C2)CC1 [I-G-84, N-(4-(4-(2-oxa-6-azaspiro[3.4]octane-6-carbonyl)piperidin-1-yl)pyridin-3-yl)-2-amino-6-fluoropyrazolo[1,5-a]pyrimidine-3-carboxamide]",+++ (Compounds with a Cisplatin sensitization value of <0.02 μM are marked with “+++.”)
4,"Nc1nn2cc(F)cnc2c1C(=O)Nc1cnccc1N1CCC(C(=O)N2CCOCC2)CC1 [I-G-85, 2-amino-6-fluoro-N-(4-(4-(morpholine-4-carbonyl)piperidin-1-yl)pyridin-3-yl)pyrazolo[1,5-a]pyrimidine-3-carboxamide]",+++ (Compounds with a Cisplatin sensitization value of <0.02 μM are marked with “+++.”)
5,"CS(=O)(=O)C1CN(C(=O)C2CCN(c3c(F)cncc3NC(=O)c3c(N)nn4cc(F)cnc34)CC2)C1 [I-G-86, 2-amino-6-fluoro-N-(5-fluoro-4-(4-(3-(methylsulfonyl)azetidine-1-carbonyl)piperidin-1-yl)pyridin-3-yl)pyrazolo[1,5-a]pyrimidine-3-carboxamide]",+++ (Compounds with a Cisplatin sensitization value of <0.02 μM are marked with “+++.”)
6,"Nc1nn2cc(Cl)cnc2c1C(=O)Nc1cncc(F)c1N1CCC(C(=O)N2CCN3CCC2CC3)CC1 [I-G-87, N-(4-(4-(1,4-diazabicyclo[3.2.2]nonane-4-carbonyl)piperidin-1-yl)-5-fluoropyridin-3-yl)-2-amino-6-chloropyrazolo[1,5-a]pyrimidine-3-carboxamide]",+++ (Compounds with a Cisplatin sensitization value of <0.02 μM are marked with “+++.”)
7,"Nc1nn2cc(F)cnc2c1C(=O)Nc1cnccc1N1CCC(C(=O)N2CC3(COC3)C2)CC1 [I-G-88, N-(4-(4-(2-oxa-6-azaspiro[3.3]heptane-6-carbonyl)piperidin-1-yl)pyridin-3-yl)-2-amino-6-fluoropyrazolo[1,5-a]pyrimidine-3-carboxamide]",+++ (Compounds with a Cisplatin sensitization value of <0.02 μM are marked with “+++.”)
8,"CS(=O)(=O)C1CN(C(=O)C2CCN(c3ccncc3NC(=O)c3c(N)nn4cc(F)cnc34)CC2)C1 [I-G-89, 2-amino-6-fluoro-N-(4-(4-(3-(methylsulfonyl)azetidine-1-carbonyl)piperidin-1-yl)pyridin-3-yl)pyrazolo[1,5-a]pyrimidine-3-carboxamide]",+ (Compounds with a Cisplatin sensitization value >0.2 μM but <5 μM are marked with “+.”)
9,"Nc1nn2cc(F)cnc2c1C(=O)Nc1cnccc1N1CCC(C(=O)N2CC3(CCO3)C2)CC1 [I-G-90, N-(4-(4-(1-oxa-6-azaspiro[3.3]heptane-6-carbonyl)piperidin-1-yl)pyridin-3-yl)-2-amino-6-fluoropyrazolo[1,5-a]pyrimidine-3-carboxamide]",+++ (Compounds with a Cisplatin sensitization value of <0.02 μM are marked with “+++.”)
10,"CCOC1CN(C(=O)C2CCN(c3ccncc3NC(=O)c3c(N)nn4cc(F)cnc34)CC2)C1 [I-G-91, 2-amino-N-(4-(4-(3-ethoxyazetidine-1-carbonyl)piperidin-1-yl)pyridin-3-yl)-6-fluoropyrazolo[1,5-a]pyrimidine-3-carboxamide]",+++ (Compounds with a Cisplatin sensitization value of <0.02 μM are marked with “+++.”)
11,"CC1(N2CCN(C(=O)C3CCN(c4c(F)cncc4NC(=O)c4c(N)nn5cc(F)cnc45)CC3)CC2)COC1 [I-G-92, 2-amino-6-fluoro-N-(5-fluoro-4-(4-(4-(3-methyloxetan-3-yl)piperazine-1-carbonyl)piperidin-1-yl)pyridin-3-yl)pyrazolo[1,5-a]pyrimidine-3-carboxamide]",+++ (Compounds with a Cisplatin sensitization value of <0.02 μM are marked with “+++.”)
12,"CO[C@@H]1CCN(C(=O)C2CCN(c3ccncc3NC(=O)c3c(N)nn4cc(F)cnc34)CC2)C1 [I-G-93, (R)-2-amino-6-fluoro-N-(4-(4-(3-methoxypyrrolidine-1-carbonyl)piperidin-1-yl)pyridin-3-yl)pyrazolo[1,5-a]pyrimidine-3-carboxamide]",+++ (Compounds with a Cisplatin sensitization value of <0.02 μM are marked with “+++.”)
13,"CO[C@H]1CCN(C(=O)C2CCN(c3ccncc3NC(=O)c3c(N)nn4cc(F)cnc34)CC2)C1 [I-G-94, (S)-2-amino-6-fluoro-N-(4-(4-(3-methoxypyrrolidine-1-carbonyl)piperidin-1-yl)pyridin-3-yl)pyrazolo[1,5-a]pyrimidine-3-carboxamide]",+++ (Compounds with a Cisplatin sensitization value of <0.02 μM are marked with “+++.”)
14,"C[N+]1([O-])CCN(C(=O)C2CCN(c3c(F)cncc3NC(=O)c3c(N)nn4cc(F)cnc34)CC2)CC1 [I-G-95, 4-(1-(3-(2-amino-6-fluoropyrazolo[1,5-a]pyrimidine-3-carboxamido)-5-fluoropyridin-4-yl)piperidine-4-carbonyl)-1-methylpiperazine 1-oxide]",+++ (Compounds with a Cisplatin sensitization value of <0.02 μM are marked with “+++.”)
15,"CN1CC(N2CCN(C(=O)C3CCN(c4c(F)cncc4NC(=O)c4c(N)nn5cc(F)cnc45)CC3)CC2)C1 [I-G-96, 2-amino-6-fluoro-N-(5-fluoro-4-(4-(4-(1-methylazetidin-3-yl)piperazine-1-carbonyl)piperidin-1-yl)pyridin-3-yl)pyrazolo[1,5-a]pyrimidine-3-carboxamide]",+++ (Compounds with a Cisplatin sensitization value of <0.02 μM are marked with “+++.”)
16,"COCC1CN(C(=O)C2CCN(c3c(F)cncc3NC(=O)c3c(N)nn4cc(F)cnc34)CC2)C1 [I-G-98, 2-amino-6-fluoro-N-(5-fluoro-4-(4-(3-(methoxymethyl)azetidine-1-carbonyl)piperidin-1-yl)pyridin-3-yl)pyrazolo[1,5-a]pyrimidine-3-carboxamide]",+++ (Compounds with a Cisplatin sensitization value of <0.02 μM are marked with “+++.”)
17,"CO[C@H]1CCN(C(=O)C2CCN(c3c(F)cncc3NC(=O)c3c(N)nn4cc(F)cnc34)CC2)C1 [I-G-99, (S)-2-amino-6-fluoro-N-(5-fluoro-4-(4-(3-methoxypyrrolidine-1-carbonyl)piperidin-1-yl)pyridin-3-yl)pyrazolo[1,5-a]pyrimidine-3-carboxamide]",+++ (Compounds with a Cisplatin sensitization value of <0.02 μM are marked with “+++.”)
18,"Nc1nn2cc(F)cnc2c1C(=O)Nc1cnccc1N1CCN(C2COC2)CC1 [I-N-1, 2-amino-6-fluoro-N-(4-(4-(oxetan-3-yl)piperazin-1-yl)pyridin-3-yl)pyrazolo[1,5-a]pyrimidine-3-carboxamide]",++ (Compounds with a Cisplatin sensitization value >0.02 μM but <0.2 μM are marked with “++.”)
19,"N#CCc1cnc2c(C(=O)Nc3cnccc3N3CCC(N)CC3)c(N)nn2c1 [I-N-2, 2-amino-N-(4-(4-aminopiperidin-1-yl)pyridin-3-yl)-6-(cyanomethyl)pyrazolo[1,5-a]pyrimidine-3-carboxamide]",+++ (Compounds with a Cisplatin sensitization value of <0.02 μM are marked with “+++.”)
20,"CN1CCN(c2ccncc2NC(=O)c2c(N)nn3cc(F)cnc23)CC1 [I-N-3, 2-amino-6-fluoro-N-(4-(4-methylpiperazin-1-yl)pyridin-3-yl)pyrazolo[1,5-a]pyrimidine-3-carboxamide]",+++ (Compounds with a Cisplatin sensitization value of <0.02 μM are marked with “+++.”)
21,"CC(C)N1CCN(c2ccncc2NC(=O)c2c(N)nn3cc(F)cnc23)CC1 [I-N-4, 2-amino-6-fluoro-N-(4-(4-isopropylpiperazin-1-yl)pyridin-3-yl)pyrazolo[1,5-a]pyrimidine-3-carboxamide]",+++ (Compounds with a Cisplatin sensitization value of <0.02 μM are marked with “+++.”)
22,"CN1CCN(c2c(NC(=O)c3c(N)nn4cc(F)cnc34)cncc2C2CC2)CC1 [I-N-5, 2-amino-N-(5-cyclopropyl-4-(4-methylpiperazin-1-yl)pyridin-3-yl)-6-fluoropyrazolo[1,5-a]pyrimidine-3-carboxamide]",++ (Compounds with a Cisplatin sensitization value >0.02 μM but <0.2 μM are marked with “++.”)
23,"Nc1nn2cc(F)cnc2c1C(=O)Nc1cnccc1-n1ccnc1 [I-N-7, N-(4-(1H-imidazol-1-yl)pyridin-3-yl)-2-amino-6-fluoropyrazolo[1,5-a]pyrimidine-3-carboxamide]",++ (Compounds with a Cisplatin sensitization value >0.02 μM but <0.2 μM are marked with “++.”)
24,"CNCCc1cnn(-c2ccncc2NC(=O)c2c(N)nn3cc(F)cnc23)c1 [I-N-8, 2-amino-6-fluoro-N-(4-(4-(2-(methylamino)ethyl)-1H-pyrazol-1-yl)pyridin-3-yl)pyrazolo[1,5-a]pyrimidine-3-carboxamide]",+ (Compounds with a Cisplatin sensitization value >0.2 μM but <5 μM are marked with “+.”)
25,"CN(C)CCc1cnn(-c2ccncc2NC(=O)c2c(N)nn3cc(F)cnc23)c1 [I-N-9, 2-amino-N-(4-(4-(2-(dimethylamino)ethyl)-1H-pyrazol-1-yl)pyridin-3-yl)-6-fluoropyrazolo[1,5-a]pyrimidine-3-carboxamide]",+ (Compounds with a Cisplatin sensitization value >0.2 μM but <5 μM are marked with “+.”)
